For experiment [1], the system named is MV-4-11 human acute myeloid leukemia cell line. Briefly: Cell viability assay in MV-4-11 cells (Cell Titer-Glo). The format is cell-based. As to conditions: MV4-11, 72 hrs incubation. Here is the method: The effects of test compounds were studied in a cell viability assay in the MV-4-11 human acute myeloid leukemia cell line. The cells were harvested during the logarithmic growth period and counted. Cells were seeded at a count of 15000 cells per well/100 μl. After seeding, cells were incubated at 37° C. 5% CO2 for 1 hr. Cells were treated with test compounds at 8 concentrations within a desired concentration range (e.g. 5 nM-10 μM) for generation of dose response curves by preparing serial dilutions of the test compound in DMSO which were further diluted with culture medium and then added to each well. The plate was further incubated for another 72 hrs in a humidified incubator at 37° C. and 5% CO2. The assay was terminated by addition of Cell Titer-Glo reagent (Promega, Madison, Wis.) at ¼ the volume of total medium per well. Contents were mixed, the plate was incubated for 10 min at room temperature and luminescence was measured. Cell viability data were plotted using GraphPad Prism (GraphPad Software, Inc., San Diego, Calif.). In addition, a nonlinear regression model with a sigmoidal dose response and variable slope within GraphPad Prism was used to calculate the IC50 value of individual test compounds.
Background: ATP-based viability assays read luminescence as a measure of living cells.

Experiment [2] addresses BRD4-2 (Homo sapiens (Human), UniProt O60885). As to the kind of experiment: Bromodomain and Extraterminal Domain (BET) binding assay, BRD4-2. The conditions noted are these: histone H4 peptide (1-21) K5/8/12/16Ac-biotin ligand; 130 nM protein, 70 nM ligand. The procedure:
(§1) The bromodomain binding assays were performed by Reaction Biology Corp., Malvern, Pa., USA (www.reactionbiology.com). The BET binding assays were conducted in 384 well microplates in assay buffer (50 mM HEPES-HCl, pH 7.5, 100 mM NaCl, 1 mg/ml BSA, 0.05% CHAPS, and 0.5% DMSO) with compounds added as DMSO stocks at a single concentration or with 10-point dose response titrations. BET protein or assay buffer were delivered to the appropriate wells of the microplate. Test compound was then delivered by acoustic technology via a Labcyte Echo550 liquid handler. The microplate was centrifuged for 5 min and pre-incubated for 30 min at RT with gentle shaking. The ligand (histone H4 peptide (1-21) K5/8/12/16Ac-biotin) was delivered and the microplate was again centrifuged for 5 min and allowed to incubate for 30 min at RT with gentle shaking. Donor beads were then added in the absence of light and the microplate was centrifuged and gently shaken. After 5 min, acceptor beads were added in the absence of light and the microplate was centrifuged and gently shaken in the dark for 60 min. The microplate was read using a Perkin Elmer EnSpire Alpha plate reader (λ Ex/λ Em=680/520-620 nm). Percent inhibition was calculated relative to positive and negative controls on a per plate basis. For titration experiments, IC50 values were determined by fitting the percent inhibition versus compound concentration.

In experiment [3] the target is BRD4-1 (Homo sapiens (Human), UniProt O60885). Briefly: Bromodomain and Extraterminal Domain (BET) binding assay, BRD4-1. The conditions noted are these: histone H4 peptide (1-21) K5/8/12/16Ac-biotin ligand; 20 nM protein, 20 nM ligand. The procedure:
as §1

A value given as a limit tells only on which side of the number the result lay.

The term IC50 denotes the concentration at which inhibition is half-maximal.

With `Cn1cc(-c2cc(C(C)(C)O)ccc2Oc2ccc(F)cc2F)c2cc(CN3CCCCC3)sc2c1=O` [Compound 7, 4-(2-(2,4-difluorophenoxy)-5-(2-hydroxypropan-2-yl)phenyl)-6-methyl-2-(piperidin-1-ylmethyl)thieno[2,3-c]pyridin-7(6H)-one], the IC50 in experiment [1] stood at 2.48 µM; in experiment [2] it was 497 nM.

With `Cc1cc(F)cc(C)c1Oc1ccc(C(C)(C)O)cc1-c1cn(C)c(=O)c2ccsc12` [Compound 2.1, 7-(2-(4-fluoro-2,6-dimethylphenoxy)-5-(2-hydroxypropan-2-yl)phenyl)-5-methylthieno[3,2-c]pyridin-4(5H)-one], the IC50 in experiment [1] turned out to be 0.47 µM; in experiment [2], 19.8 nM; in experiment [3] it was 2500 nM.

On to `Cc1nnc(-c2cc3c(-c4cc(C(C)(C)O)ccc4Oc4c(C)cc(F)cc4C)cn(C)c(=O)c3s2)[nH]1` [Compound 152, 4-(2-(4-fluoro-2,6-dimethylphenoxy)-5-(2-hydroxypropan-2-yl)phenyl)-6-methyl-2-(5-methyl-4H-1,2,4-triazol-3-yl)thieno[2,3-c]pyridin-7(6H)-one], for which the IC50 in experiment [1] is 0.536 µM; in experiment [2], 9 nM; in experiment [3], 1490 nM.

For `C=C(C)c1ccc(Oc2c(C)cc(F)cc2C)c(-c2cn(C)c(=O)c3sc(C(=O)NCC)cc23)c1` [Compound 148, N-ethyl-4-(2-(4-fluoro-2,6-dimethylphenoxy)-5-(prop-1-en-2-yl)phenyl)-6-methyl-7-oxo-6,7-dihydrothieno[2,3-c]pyridine-2-carboxamide], the values for the IC50 in experiment [1], in experiment [2] and in experiment [3] were 1.28 µM, 103 nM and above 10000 nM, respectively.

On to `CCS(=O)(=O)Nc1ccc(Oc2ccc(F)cc2F)c(-c2cn(C)c(=O)c3sc(-c4nc5ccccc5o4)cc23)c1` [Compound 158, N-(3-(2-(benzo[d]oxazol-2-yl)-6-methyl-7-oxo-6,7-dihydrothieno[2,3-c]pyridin-4-yl)-4-(2,4-difluorophenoxy)phenyl)ethanesulfonamide], for which the IC50 in experiment [1] is 0.56 µM; in experiment [2] it was 196 nM; in experiment [3], 103 nM.

Turning to `Cn1cc(-c2cc(C(C)(C)O)ccc2Oc2ccc(F)cc2F)c2sccc2c1=O` [Compound 2.3, 7-(2-(2,4-difluorophenoxy)-5-(2-hydroxypropan-2-yl)phenyl)-5-methylthieno[3,2-c]pyridin-4(5H)-one], the figures for the IC50 in experiment [1], in experiment [2] and in experiment [3] were 0.163 µM, 28.5 nM and 118 nM, respectively.

Regarding `Cc1cc(F)cc(C)c1Oc1ccc(C(C)(C)O)cc1-c1cn(C)c(=O)c2sc(C(=O)Nc3ccccc3)cc12` [Compound 151, 4-(2-(4-fluoro-2,6-dimethylphenoxy)-5-(2-hydroxypropan-2-yl)phenyl)-6-methyl-7-oxo-N-phenyl-6,7-dihydrothieno[2,3-c]pyridine-2-carboxamide], the IC50 in experiment [1] was 0.282 µM; in experiment [2] it was 3.2 nM; in experiment [3], 9380 nM.

With `CCS(=O)(=O)Nc1ccc(Oc2ccc(F)cc2F)c(-c2cn(C)c(=O)c3ccsc23)c1` [Compound 2.91, N-(4-(2,4-difluorophenoxy)-3-(5-methyl-4-oxo-4,5-dihydrothieno [3,2-c]pyridin-7-yl)phenyl)ethanesulfonamide], the IC50 in experiment [2] is 7.3 nM; in experiment [3], 15 nM.

On to `CCNC(=O)c1cc2c(=O)n(C)cc(-c3cc(C(C)(C)O)ccc3Oc3ccc(F)cc3F)c2s1` [Compound 159, 7-(2-(2,4-difluorophenoxy)-5-(2-hydroxypropan-2-yl)phenyl)-N-ethyl-5-methyl-4-oxo-4,5-dihydrothieno[3,2-c]pyridine-2-carboxamide], for which the IC50 in experiment [2] came out at 1.7 nM; in experiment [3] it was 18 nM.

As for `Cc1cc(F)cc(C)c1Oc1ccc(C(C)(C)O)cc1-c1cn(C)c(=O)c2sc(-c3nc4ccccc4[nH]3)cc12` [Compound 154, 2-(1H-benzo[d]imidazol-2-yl)-4-(2-(4-fluoro-2,6-dimethylphenoxy)-5-(2-hydroxypropan-2-yl)phenyl)-6-methylthieno[2,3-c]pyridin-7(6H)-one], the results for the concentration for half-maximal inhibition (IC50) in experiment [1], in experiment [2] and in experiment [3] were 2.89 µM, 284 nM and above 10000 nM, respectively.

For `Cn1cc(-c2cc(C(C)(C)O)ccc2Oc2ccc(F)cc2F)c2cc(C(=O)N3CCC(F)(F)C3)sc2c1=O` [Compound 76, 4-(2-(2,4-difluorophenoxy)-5-(2-hydroxypropan-2-yl)phenyl)-2-(3,3-difluoropyrrolidin-1-carbonyl)-6-methylthieno[2,3-c]pyridin-7(6H)-one], the IC50 in experiment [1] is 0.879 µM; in experiment [2] it was 17 nM; in experiment [3], 265 nM.

Consider `Cc1nnc(-c2cc3c(-c4cc(C(C)(C)O)ccc4Oc4ccc(F)cc4F)cn(C)c(=O)c3s2)o1` [Compound 12, 4-(2-(2,4-difluorophenoxy)-5-(2-hydroxypropan-2-yl)phenyl)-6-methyl-2-(5-methyl-1,3,4-oxadiazol-2-yl)thieno[2,3-c]pyridin-7(6H)-one], for which the values for the IC50 in experiment [1], in experiment [2] and in experiment [3] were 0.074 µM, 12.5 nM and 17 nM, respectively.

On to `CCN(CC)C(=O)c1cc2c(-c3cc(C(C)(C)O)ccc3Oc3c(C)cc(F)cc3C)cn(C)c(=O)c2s1` [Compound 155, N,N-diethyl-4-(2-(4-fluoro-2,6-dimethylphenoxy)-5-(2-hydroxypropan-2-yl)phenyl)-6-methyl-7-oxo-6,7-dihydrothieno[2,3-c]pyridine-2-carboxamide], for which the IC50 in experiment [2] was 4070 nM; in experiment [3] it was above 10000 nM.

For `Cc1cc(F)cc(C)c1Oc1ccc(C(C)(C)O)cc1-c1cn(C)c(=O)c2sc(C(=O)NCc3ccccc3)cc12` [Compound 149, N-benzyl-4-(2-(4-fluoro-2,6-dimethylphenoxy)-5-(2-hydroxypropan-2-yl)phenyl)-6-methyl-7-oxo-6,7-dihydrothieno[2,3-c]pyridine-2-carboxamide], the IC50 is 1.5 µM in experiment [1], 103 nM in experiment [2] and above 10000 nM in experiment [3].

For the compound `Cn1cc(-c2cc(C(C)(C)O)ccc2Oc2ccc(F)cc2F)c2cc(C(=O)NCC(F)(F)F)sc2c1=O` [Compound 5, 4-(2-(2,4-difluorophenoxy)-5-(2-hydroxypropan-2-yl)phenyl)-6-methyl-7-oxo-N-(2,2,2-trifluoroethyl)-6,7-dihydrothieno[2,3-c]pyridine-2-carboxamide], the IC50 in experiment [1] was determined as 0.597 µM; in experiment [2] it was 18 nM; in experiment [3], 744 nM.

In the case of `CNC(=O)c1cc2c(-c3cc(C(C)(C)O)ccc3Oc3c(C)cc(F)cc3C)cn(C)c(=O)c2s1` [Compound 150, 4-(2-(4-fluoro-2,6-dimethylphenoxy)-5-(2-hydroxypropan-2-yl)phenyl)-N,6-dimethyl-7-oxo-6,7-dihydrothieno[2,3-c]pyridine-2-carboxamide], the IC50 was 0.193 µM in experiment [1], 1.2 nM in experiment [2] and 3600 nM in experiment [3].

Consider `Cc1cc(F)cc(C)c1Oc1ccc(C(C)(C)O)cc1-c1cn(C)c(=O)c2sc(-c3nc4ccccc4o3)cc12` [Compound 153, 2-(benzo[d]oxazol-2-yl)-4-(2-(4-fluoro-2,6-dimethylphenoxy)-5-(2-hydroxypropan-2-yl)phenyl)-6-methylthieno[2,3-c]pyridin-7(6H)-one], for which the IC50 is 3.83 µM in experiment [1], 526 nM in experiment [2] and above 10000 nM in experiment [3].

As to `Cn1cc(-c2cc(C(C)(C)O)ccc2Oc2ccc(F)cc2F)c2cc(C(=O)N3CCC(F)(F)CC3)sc2c1=O` [Compound 22, 4-(2-(2,4-difluorophenoxy)-5-(2-hydroxypropan-2-yl)phenyl)-2-(4,4-difluoropiperidine-1-carbonyl)-6-methylthieno[2,3-c]pyridin-7(6H)-one], the IC50 stood at 1.41 µM in experiment [1], 11 nM in experiment [2] and 638 nM in experiment [3].

Consider `C=C(C)c1ccc(Oc2c(C)cc(F)cc2C)c(-c2cn(C)c(=O)c3cc(C(=O)NCC)sc23)c1` [Compound 156, N-ethyl-7-(2-(4-fluoro-2,6-dimethylphenoxy)-5-(prop-1-en-2-yl)phenyl)-5-methyl-4-oxo-4,5-dihydrothieno[3,2-c]pyridine-2-carboxamide], for which the IC50 is 740 nM in experiment [2] and above 10000 nM in experiment [3].

The record behind these values is patent US11584756B2, “Heterocyclic compounds as BET inhibitors” (NUVATION BIO INC., priority 2019, dated 2023).
